Results published in the OligoGym collection.
Oligonucleotides are given in HELM: sugar(base)linkage, 5' to 3'; d 2'-deoxyribose, r ribose, m 2'-O-methylribose, p phosphate. ss, as = sense and antisense strand

Target: Mmp7 (rat)
Experiment: reporter assay of Huesken 2005
Settings: siRNA
Further: test concentration or dose not given here.

Substance	normalised inhibition (eCFP-eYFP dual reporter)
RNA1{r(G)p.r(G)p.r(A)p.r(A)p.r(A)p.r(U)p.r(U)p.r(U)p.r(U)p.r(A)p.r(C)p.r(C)p.r(U)p.r(U)p.r(C)p.r(A)p.r(C)p.r(G)p.r(A)p.d(T)p.d(T)}|RNA2{r(U)p.r(C)p.r(G)p.r(U)p.r(G)p.r(A)p.r(A)p.r(G)p.r(G)p.r(U)p.r(A)p.r(A)p.r(A)p.r(A)p.r(U)p.r(U)p.r(U)p.r(C)p.r(C)p.d(T)p.d(A)}$$$RNA1{StrandType:ss}|RNA2{StrandType:as}$	127%
RNA1{r(G)p.r(G)p.r(A)p.r(A)p.r(C)p.r(A)p.r(G)p.r(G)p.r(C)p.r(G)p.r(C)p.r(A)p.r(G)p.r(A)p.r(A)p.r(U)p.r(U)p.r(A)p.r(U)p.d(T)p.d(T)}|RNA2{r(A)p.r(U)p.r(A)p.r(A)p.r(U)p.r(U)p.r(C)p.r(U)p.r(G)p.r(C)p.r(G)p.r(C)p.r(C)p.r(U)p.r(G)p.r(U)p.r(U)p.r(C)p.r(C)p.d(C)p.d(A)}$$$RNA1{StrandType:ss}|RNA2{StrandType:as}$	104%
RNA1{r(G)p.r(G)p.r(A)p.r(A)p.r(G)p.r(C)p.r(C)p.r(G)p.r(G)p.r(A)p.r(G)p.r(A)p.r(A)p.r(G)p.r(U)p.r(G)p.r(A)p.r(C)p.r(C)p.d(T)p.d(T)}|RNA2{r(G)p.r(G)p.r(U)p.r(C)p.r(A)p.r(C)p.r(U)p.r(U)p.r(C)p.r(U)p.r(C)p.r(C)p.r(G)p.r(G)p.r(C)p.r(U)p.r(U)p.r(C)p.r(C)p.d(T)p.d(G)}$$$RNA1{StrandType:ss}|RNA2{StrandType:as}$	83%
RNA1{r(G)p.r(G)p.r(A)p.r(C)p.r(A)p.r(A)p.r(A)p.r(C)p.r(U)p.r(G)p.r(A)p.r(G)p.r(G)p.r(G)p.r(A)p.r(A)p.r(A)p.r(U)p.r(G)p.d(T)p.d(T)}|RNA2{r(C)p.r(A)p.r(U)p.r(U)p.r(U)p.r(C)p.r(C)p.r(C)p.r(U)p.r(C)p.r(A)p.r(G)p.r(U)p.r(U)p.r(U)p.r(G)p.r(U)p.r(C)p.r(C)p.d(A)p.d(C)}$$$RNA1{StrandType:ss}|RNA2{StrandType:as}$	83%
RNA1{r(G)p.r(G)p.r(A)p.r(C)p.r(G)p.r(G)p.r(A)p.r(U)p.r(G)p.r(G)p.r(U)p.r(G)p.r(A)p.r(G)p.r(G)p.r(A)p.r(C)p.r(U)p.r(C)p.d(T)p.d(T)}|RNA2{r(G)p.r(A)p.r(G)p.r(U)p.r(C)p.r(C)p.r(U)p.r(C)p.r(A)p.r(C)p.r(C)p.r(A)p.r(U)p.r(C)p.r(C)p.r(G)p.r(U)p.r(C)p.r(C)p.d(A)p.d(G)}$$$RNA1{StrandType:ss}|RNA2{StrandType:as}$	81.1%
RNA1{r(G)p.r(G)p.r(A)p.r(C)p.r(U)p.r(C)p.r(A)p.r(G)p.r(G)p.r(C)p.r(G)p.r(U)p.r(G)p.r(A)p.r(A)p.r(C)p.r(U)p.r(U)p.r(C)p.d(T)p.d(T)}|RNA2{r(G)p.r(A)p.r(A)p.r(G)p.r(U)p.r(U)p.r(C)p.r(A)p.r(C)p.r(G)p.r(C)p.r(C)p.r(U)p.r(G)p.r(A)p.r(G)p.r(U)p.r(C)p.r(C)p.d(T)p.d(C)}$$$RNA1{StrandType:ss}|RNA2{StrandType:as}$	70.4%
RNA1{r(G)p.r(G)p.r(A)p.r(G)p.r(A)p.r(C)p.r(U)p.r(G)p.r(G)p.r(A)p.r(A)p.r(A)p.r(G)p.r(C)p.r(U)p.r(G)p.r(U)p.r(C)p.r(C)p.d(T)p.d(T)}|RNA2{r(G)p.r(G)p.r(A)p.r(C)p.r(A)p.r(G)p.r(C)p.r(U)p.r(U)p.r(U)p.r(C)p.r(C)p.r(A)p.r(G)p.r(U)p.r(C)p.r(U)p.r(C)p.r(C)p.d(G)p.d(G)}$$$RNA1{StrandType:ss}|RNA2{StrandType:as}$	88.7%
RNA1{r(G)p.r(G)p.r(A)p.r(G)p.r(U)p.r(A)p.r(U)p.r(G)p.r(C)p.r(A)p.r(A)p.r(A)p.r(U)p.r(C)p.r(C)p.r(C)p.r(A)p.r(C)p.r(U)p.d(T)p.d(T)}|RNA2{r(A)p.r(G)p.r(U)p.r(G)p.r(G)p.r(G)p.r(A)p.r(U)p.r(U)p.r(U)p.r(G)p.r(C)p.r(A)p.r(U)p.r(A)p.r(C)p.r(U)p.r(C)p.r(C)p.d(A)p.d(C)}$$$RNA1{StrandType:ss}|RNA2{StrandType:as}$	96.7%
RNA1{r(G)p.r(G)p.r(C)p.r(C)p.r(A)p.r(C)p.r(U)p.r(C)p.r(U)p.r(C)p.r(U)p.r(G)p.r(G)p.r(G)p.r(U)p.r(C)p.r(U)p.r(G)p.r(G)p.d(T)p.d(T)}|RNA2{r(C)p.r(C)p.r(A)p.r(G)p.r(A)p.r(C)p.r(C)p.r(C)p.r(A)p.r(G)p.r(A)p.r(G)p.r(A)p.r(G)p.r(U)p.r(G)p.r(G)p.r(C)p.r(C)p.d(A)p.d(A)}$$$RNA1{StrandType:ss}|RNA2{StrandType:as}$	41.4%
RNA1{r(G)p.r(G)p.r(C)p.r(C)p.r(A)p.r(G)p.r(G)p.r(A)p.r(A)p.r(A)p.r(C)p.r(A)p.r(C)p.r(U)p.r(C)p.r(U)p.r(A)p.r(G)p.r(G)p.d(T)p.d(T)}|RNA2{r(C)p.r(C)p.r(U)p.r(A)p.r(G)p.r(A)p.r(G)p.r(U)p.r(G)p.r(U)p.r(U)p.r(U)p.r(C)p.r(C)p.r(U)p.r(G)p.r(G)p.r(C)p.r(C)p.d(C)p.d(A)}$$$RNA1{StrandType:ss}|RNA2{StrandType:as}$	54.5%
RNA1{r(G)p.r(G)p.r(C)p.r(G)p.r(C)p.r(A)p.r(G)p.r(A)p.r(A)p.r(U)p.r(U)p.r(A)p.r(U)p.r(C)p.r(U)p.r(U)p.r(A)p.r(G)p.r(G)p.d(T)p.d(T)}|RNA2{r(C)p.r(C)p.r(U)p.r(A)p.r(A)p.r(G)p.r(A)p.r(U)p.r(A)p.r(A)p.r(U)p.r(U)p.r(C)p.r(U)p.r(G)p.r(C)p.r(G)p.r(C)p.r(C)p.d(T)p.d(G)}$$$RNA1{StrandType:ss}|RNA2{StrandType:as}$	134%
RNA1{r(G)p.r(G)p.r(G)p.r(A)p.r(A)p.r(C)p.r(A)p.r(G)p.r(G)p.r(C)p.r(G)p.r(C)p.r(A)p.r(G)p.r(A)p.r(A)p.r(U)p.r(U)p.r(A)p.d(T)p.d(T)}|RNA2{r(U)p.r(A)p.r(A)p.r(U)p.r(U)p.r(C)p.r(U)p.r(G)p.r(C)p.r(G)p.r(C)p.r(C)p.r(U)p.r(G)p.r(U)p.r(U)p.r(C)p.r(C)p.r(C)p.d(A)p.d(C)}$$$RNA1{StrandType:ss}|RNA2{StrandType:as}$	93.6%
RNA1{r(G)p.r(G)p.r(G)p.r(A)p.r(G)p.r(A)p.r(U)p.r(C)p.r(A)p.r(C)p.r(G)p.r(G)p.r(A)p.r(G)p.r(A)p.r(C)p.r(A)p.r(A)p.r(C)p.d(T)p.d(T)}|RNA2{r(G)p.r(U)p.r(U)p.r(G)p.r(U)p.r(C)p.r(U)p.r(C)p.r(C)p.r(G)p.r(U)p.r(G)p.r(A)p.r(U)p.r(C)p.r(U)p.r(C)p.r(C)p.r(C)p.d(C)p.d(T)}$$$RNA1{StrandType:ss}|RNA2{StrandType:as}$	94.2%
RNA1{r(G)p.r(G)p.r(G)p.r(C)p.r(C)p.r(A)p.r(G)p.r(G)p.r(A)p.r(A)p.r(A)p.r(C)p.r(A)p.r(C)p.r(U)p.r(C)p.r(U)p.r(A)p.r(G)p.d(T)p.d(T)}|RNA2{r(C)p.r(U)p.r(A)p.r(G)p.r(A)p.r(G)p.r(U)p.r(G)p.r(U)p.r(U)p.r(U)p.r(C)p.r(C)p.r(U)p.r(G)p.r(G)p.r(C)p.r(C)p.r(C)p.d(A)p.d(T)}$$$RNA1{StrandType:ss}|RNA2{StrandType:as}$	83.5%
RNA1{r(G)p.r(G)p.r(G)p.r(G)p.r(C)p.r(C)p.r(A)p.r(G)p.r(G)p.r(C)p.r(C)p.r(U)p.r(C)p.r(G)p.r(G)p.r(C)p.r(G)p.r(G)p.r(A)p.d(T)p.d(T)}|RNA2{r(U)p.r(C)p.r(C)p.r(G)p.r(C)p.r(C)p.r(G)p.r(A)p.r(G)p.r(G)p.r(C)p.r(C)p.r(U)p.r(G)p.r(G)p.r(C)p.r(C)p.r(C)p.r(C)p.d(G)p.d(G)}$$$RNA1{StrandType:ss}|RNA2{StrandType:as}$	50.8%
RNA1{r(G)p.r(G)p.r(U)p.r(C)p.r(U)p.r(G)p.r(G)p.r(G)p.r(U)p.r(C)p.r(A)p.r(C)p.r(U)p.r(C)p.r(U)p.r(U)p.r(C)p.r(U)p.r(G)p.d(T)p.d(T)}|RNA2{r(C)p.r(A)p.r(G)p.r(A)p.r(A)p.r(G)p.r(A)p.r(G)p.r(U)p.r(G)p.r(A)p.r(C)p.r(C)p.r(C)p.r(A)p.r(G)p.r(A)p.r(C)p.r(C)p.d(C)p.d(A)}$$$RNA1{StrandType:ss}|RNA2{StrandType:as}$	73.8%
RNA1{r(G)p.r(G)p.r(U)p.r(G)p.r(A)p.r(G)p.r(G)p.r(A)p.r(C)p.r(U)p.r(C)p.r(A)p.r(G)p.r(G)p.r(C)p.r(G)p.r(U)p.r(G)p.r(A)p.d(T)p.d(T)}|RNA2{r(U)p.r(C)p.r(A)p.r(C)p.r(G)p.r(C)p.r(C)p.r(U)p.r(G)p.r(A)p.r(G)p.r(U)p.r(C)p.r(C)p.r(U)p.r(C)p.r(A)p.r(C)p.r(C)p.d(A)p.d(T)}$$$RNA1{StrandType:ss}|RNA2{StrandType:as}$	94.6%
RNA1{r(G)p.r(G)p.r(U)p.r(U)p.r(U)p.r(G)p.r(C)p.r(C)p.r(G)p.r(G)p.r(A)p.r(G)p.r(A)p.r(C)p.r(U)p.r(G)p.r(G)p.r(A)p.r(A)p.d(T)p.d(T)}|RNA2{r(U)p.r(U)p.r(C)p.r(C)p.r(A)p.r(G)p.r(U)p.r(C)p.r(U)p.r(C)p.r(C)p.r(G)p.r(G)p.r(C)p.r(A)p.r(A)p.r(A)p.r(C)p.r(C)p.d(G)p.d(A)}$$$RNA1{StrandType:ss}|RNA2{StrandType:as}$	103%
RNA1{r(G)p.r(U)p.r(C)p.r(A)p.r(U)p.r(G)p.r(G)p.r(A)p.r(G)p.r(A)p.r(U)p.r(A)p.r(A)p.r(U)p.r(G)p.r(C)p.r(A)p.r(G)p.r(A)p.d(T)p.d(T)}|RNA2{r(U)p.r(C)p.r(U)p.r(G)p.r(C)p.r(A)p.r(U)p.r(U)p.r(A)p.r(U)p.r(C)p.r(U)p.r(C)p.r(C)p.r(A)p.r(U)p.r(G)p.r(A)p.r(C)p.d(A)p.d(C)}$$$RNA1{StrandType:ss}|RNA2{StrandType:as}$	115%
RNA1{r(G)p.r(U)p.r(C)p.r(C)p.r(U)p.r(A)p.r(A)p.r(G)p.r(U)p.r(G)p.r(G)p.r(C)p.r(A)p.r(U)p.r(U)p.r(C)p.r(C)p.r(A)p.r(G)p.d(T)p.d(T)}|RNA2{r(C)p.r(U)p.r(G)p.r(G)p.r(A)p.r(A)p.r(U)p.r(G)p.r(C)p.r(C)p.r(A)p.r(C)p.r(U)p.r(U)p.r(A)p.r(G)p.r(G)p.r(A)p.r(C)p.d(T)p.d(G)}$$$RNA1{StrandType:ss}|RNA2{StrandType:as}$	110%
